Source: US20030152557A1, “Methods for inhibiting histone deacetylase-4” (priority 2001, published 2003)
Values belong to the compound of their own block, whether it stands above or below them. d = 2'-deoxy (DNA); m = 2'-O-methyl

Legend:
Human A549 cells = assay: cDNA array analysis of gene transcription; type: cell-based; conditions: 50 nM, two days, vs HDAC-4 mismatch oligo (MM2)
Protocol: (§1) Briefly, human A549 and/or T24 human bladder carcinoma cells were seeded in 10 cm tissue culture dishes one day prior to oligonucleotide treatment. The cell lines were obtained from the American Type Culture Collection (ATCC) (Manassas, Va.) and were grown under the recommended culture conditions. Before the addition of the oligonucleotides, cells were washed with PBS (phosphate buffered saline). Next, lipofectin transfection reagent (GIBCO BRL Mississauga, Ontario, CA), at a concentration of 6.25 μg/ml, was added to serum free OPTIMEM medium (GIBCO BRL, Rockville, Md.), which was then added to the cells. The oligonucleotides to be screened were then added directly to the cells (i.e., one oligonucleotide per plate of cells). Mismatched oligonucleotides were used as controls. The same concentration of oligonucleotide (e.g., 50 nM) was used per plate of cells for each oligonucleotide tested.

human HDAC-4 mRNA = assay: Northern blot analysis of HDAC-4 RNA expression; type: cell-based; conditions: A549 cells, escalating doses, 24 hours
Protocol: Human cancer A549 cells were treated with escalating doses of AS1, AS2 or MM2 oligos for 24 hours. Total RNAs were harvested for Northern analysis.
Seventeen phosphorothioate ODNs containing sequences complementary to the 5′ or 3′ UTR of the human HDAC-4 gene (GenBank Accession No. AB006626) were screened as above. […] HDAC-4 MM oligo was created as a control; compared to the antisense oligo, it contains a 6-base mismatch.
as §1
Cells were harvested, and total RNAs were analyzed by Northern blot analysis. […]

human HDAC-4 protein = assay: Western blot of HDAC-4 protein expression; type: cell-based; conditions: A549 cells, 48 hours
Protocol: Human cancer A549 cells were treated with AS1, AS2 or MM2 oligos for 48 hours. Whole cell lysates were analyzed by Western blotting using antibodies specific against human HDAC-4.
(§2) OSDN treatment conditions were as previously described.
(§3) Cells were lysed in buffer containing 1% Triton X-100, 0.5% sodium deoxycholate, 5 mM EDTA, 25 mM Tris-HCl, pH 7.5, plus protease inhibitors. Total protein was quantified by the protein assay reagent from Bio-Rad (Hercules, Calif.). 100 ug of total protein was analyzed by SDS-PAGE. Next, total protein was transferred onto a PVDF membrane and probed with various HDAC-specific primary antibodies. Rabbit anti-HDAC-1 (H-51), anti-HDAC-2 (H-54) antibodies (Santa Cruz Biotechnologies, Santa Cruz, Calif.) were used at 1:500 dilution. Rabbit anti-HDAC-3 antibody (Sigma, St. Louis, Mo.) was used at a dilution of 1:1000. Anti-HDAC-4 antibody was prepared as previously described (Wang, S. H. et al., (1999) Mol. Cell. Biol. 19:7816-27), and was used at a dilution of 1:1000. Anti-HDAC-6 antibody was raised by immunizing rabbits with a GST fusion protein containing a fragment of HDAC-6 protein (amino acid #990 to #1216, GenBank Accession No. AAD29048). Rabbit antiserum was tested and found only to react specifically to the human HDAC-6 isoform. HDAC-6 antiserum was used at 1:500 dilution in Western blots to detect HDAC-6 in total cell lysates. […]

A549 = assay: apoptosis, Cell Death Detection ELISA, A549; type: cell-based, human; conditions: 48 hour treatment
Protocol: as §1
(§4) In order to determine the effect of HDAC OSDNs on cell growth and cell death through apoptosis, A549 or T24 cells, MDAmb231 cells, and HMEC cells (ATCC, Manassas, Va.) were treated with HDAC OSDNs as previously described.
(§5) For the apoptosis study, cells were analyzed using the Cell Death Detection ELISA^Plus kit (Roche Diagnostic GmBH, Mannheim, Germany) according to the manufacturer's directions. Typically, 10,000 cells were plated in 96-well tissue culture dishes for 2 hours before harvest and lysis. Each sample was analyzed in duplicate. ELISA reading was done using a MR700 plate reader (DYNEX Technology, Ashford, Middlesex, England) at 410 nm. The reference was set at 490 nm.

T24 = assay: apoptosis, Cell Death Detection ELISA, T24; type: cell-based, human; conditions: 48 hour treatment
Protocol: as §1, §4, §5

MDAmb231 = assay: apoptosis, Cell Death Detection ELISA, MDAmb231; type: cell-based, human; conditions: 48 hour treatment
Protocol: as §1, §4, §5

HMEC = assay: apoptosis, Cell Death Detection ELISA, HMEC; type: cell-based, human; conditions: 48 hour treatment
Protocol: as §1, §4, §5

human HDAC-6 RNA = assay: Northern blot analysis of HDAC-6 RNA expression; type: cell-based; conditions: T24 cells, 100 nM, 24 hours
Protocol: Thirteen phosphorothloate ODNs containing sequences complementary to the 5′ or 3′ untranslated regions of the human HDAC-6 gene (GenBank Accession No. AJ011972) were screened as above. […] HDAC-6 MM oligo was created as a control; compared to the antisense oligo, it contains a 7-base mismatch.
as §1
(§6) Cells were harvested, and total RNAs were analyzed by Northern blot analysis. Briefly, total RNA was extracted using RNeasy miniprep columns (QIAGEN). […]

human HDAC-6 protein = assay: Western blot of HDAC-6 protein expression; type: cell-based; conditions: A549 cells, 50 nM, 48 hours
Protocol: as §2
as §3, with “lysates. Horse Radish Peroxidase conjugated secondary antibody was used at a dilution of 1:5000 to detect primary antibody binding.” for “lysates.”

human cancer cells = assay: cell growth analysis and apoptosis, cancer cells; type: cell-based; conditions: various human cancer cells, 50 nM
Protocol: as §4, §5
Cells were harvested and cell numbers counted by trypan blue exclusion using a hemocytometer. Percentage of inhibition was calculated as (100-AS cell numbers/control cell numbers)%.

human HDAC-3 mRNA = assay: Northern blot analysis of HDAC-3 RNA expression; type: cell-based; conditions: T24 cells, 100 nM, 24 hours
Protocol: Twenty-one phosphorothioate ODNs containing sequences complementary to the 5′ or 3′ UTR of the human HDAC-3 gene (GenBank Accession No. AF039703) were screened as above. […] HDAC-3 MM oligo was created as a control; compared to the antisense oligo, it contains a a 6-base mismatch.
as §1, §6

human HDAC-3 protein = assay: Western blot of HDAC-3 protein expression; type: cell-based; conditions: A549 cells, 50 nM, 48 hours
Protocol: as §2
as §3, with “lysates. Horse Radish Peroxidase conjugated secondary antibody was used at a dilution of 1:5000 to detect primary antibody binding.” for “lysates.”

human HDAC-2 RNA = assay: Northern blot analysis of HDAC-2 RNA expression; type: cell-based; conditions: T24 cells, 100 nM, 24 hours
Protocol: Twenty-four phosphorothioate ODNs containing sequences complementary to the 5′ or 3′ UTR of the human HDAC-2 gene (GenBank Accession No. U31814) were screened as above. […] HDAC-2 MM was created as a control; compared to the antisense oligo, it contains a 7-base mismatch.
as §1, §6

human HDAC-2 protein = assay: Western blot of HDAC-2 protein expression; type: cell-based; conditions: A549 cells, 50 nM, 48 hours
Protocol: as §2
as §3, with “lysates. Horse Radish Peroxidase conjugated secondary antibody was used at a dilution of 1:5000 to detect primary antibody binding.” for “lysates.”

[1] = test system: T24 human bladder cancer cells; assay: inhibition of HDAC activity in whole cells (acetylated histone H-4 Western); type: cell-based; conditions: acetylated histone H-4 in T24 cells, 16 hours
Protocol: T24 human bladder cancer cells (ATCC, Manassas, Va.) growing in culture were incubated with test compounds for 16 hours. Histones were extracted from the cells by standard procedures (see e.g. Yoshida et al., supra) after the culture period. Twenty μg total core histone protein was loaded onto SDS/PAGE and transferred to nitrocellulose membranes, which were then reacted with polyclonal antibody specific for acetylated histone H-4 (Upstate Biotech Inc., Lake Placid, […].). Horse Radish Peroxidase conjugated secondary antibody was used at a dilution of 1:5000 to detect primary antibody binding. The secondary antibody binding was visualized by use of the Enhanced chemiluminescence (ECL) detection kit (Amersham-Pharmacia Biotech., Inc., Piscataway, N.J.). After exposure to film, acetylated H-4 signal was quantitated by densitometry.

mammalian HDAC = conditions: Yoshida et al. 1990; cited from earlier work
[2] = test system: murine erythroleukemia cells; conditions: Yoshida et al. 1987; cited from earlier work
A549 cells = assay: RNase protection assay of p21, GADD45 and Bax mRNA, A549; conditions: A549, TSA 250 ng/ml 16 hours vs lipofectin
Protocol: As a control, A549 cells were treated by lipofectin with or without TSA (250 ng/ml) treatment for 16 hours. […] Total RNA from cells was prepared using “RNeasy miniprep kit” from QIAGEN following the manufacturer's manual. Labeled probes used in the protection assays were synthesized using “hStress-1 multiple-probe template sets” from Pharmingen (San Diego, Calif., U.S.A.) according to the manufacturer's instructions. Protection procedures were performed using “RPA II™ Ribonuclease Protection Assay Kit” from Ambion, (Austin, Tex.) following the manufacturer's instructions. Quantitation of the bands from autoradiograms was done by using Cyclone™ Phosphor System (Packard Instruments Co. Inc., Meriden, Conn.).

Compound: 5-GCTGCCTGCCGTGCCCACCC-3′ (sugars from the 5' end m4 d12 m4, all phosphorothioate, methylation of C and T or U not given here) [HDAC-4 AS1, antisense oligo, human HDAC4 5′-UTR]
fold change CDK4 (Human A549 cells): −3 fold | fold change Egr-1 (Human A549 cells): 3 fold | fold change GADD45 (Human A549 cells): 3 fold | fold change GADD153 (Human A549 cells): 6 fold | fold change IL-15 (Human A549 cells): 4 fold | fold change IRF (Human A549 cells): 2 fold | fold change Notch-4 (Human A549 cells): −3 fold | fold change PLK (Human A549 cells): −4 fold | fold change basic FGF (Human A549 cells): 2 fold | fold change cyclin A2 (Human A549 cells): −3 fold | fold change cyclin B1 (Human A549 cells): −3 fold | fold change p21 (Human A549 cells): 4 fold | fold change topo II α (Human A549 cells): −5 fold | HDAC-4 expression at RNA level (human HDAC-4 mRNA): inbibit HDAC-4 expression at RNA level in a dose-dependent manner | expression of HDAC-4 protein (human HDAC-4 protein): inbibit HDAC-4 expression at protein level

Compound: 5′-CAGGCTGGAATGAGCTACAG-3′ (sugars from the 5' end m4 d12 m4, all phosphorothioate, methylation of C not given here) [HDAC-6, antisense oligo, human HDAC6 3′-UTR]
Apoptosis A549 (A549; HDAC isotype-specific OSDN): − (“−”: < = 2x fold over non-specific background) | Apoptosis T24 (T24; HDAC isotype-specific OSDN): − (“−”: < = 2x fold over non-specific background) | Apoptosis MDAmb231 (MDAmb231; HDAC isotype-specific OSDN): − (“−”: < = 2x fold over non-specific background) | Apoptosis HMEC (HMEC; HDAC isotype-specific OSDN): − (“−”: < = 2x fold over non-specific background) | HDAC-6 RNA expression (antisense activity) (human HDAC-6 RNA): antisense activity to human HDAC-6 | expression of HDAC-6 protein (human HDAC-6 protein): specifically inhibits the expression of the respective HDAC isotype protein | effect on cancer cell growth and apoptosis (human cancer cells): no effect on cancer cell growth or apoptosis

Compound: 5′-CGCTTTCCTTGTCATTGACA-3′ (sugars from the 5' end m4 d12 m4, all phosphorothioate, methylation of C and T or U not given here) [HDAC-3, antisense oligo, human HDAC3 3′-UTR]
Apoptosis A549 (A549; HDAC isotype-specific OSDN): − (“−”: < = 2x fold over non-specific background) | Apoptosis T24 (T24; HDAC isotype-specific OSDN): − (“−”: < = 2x fold over non-specific background) | Apoptosis MDAmb231 (MDAmb231; HDAC isotype-specific OSDN): − (“−”: < = 2x fold over non-specific background) | Apoptosis HMEC (HMEC; HDAC isotype-specific OSDN): − (“−”: < = 2x fold over non-specific background) | HDAC-3 RNA expression (antisense activity) (human HDAC-3 mRNA): antisense activity to human HDAC-3 | expression of HDAC-3 protein (human HDAC-3 protein): specifically inhibits the expression of the respective HDAC isotype protein | effect on cancer cell growth and apoptosis (human cancer cells): no effect on cancer cell growth or apoptosis

Compound: 5′-GCTGAGCTGTTCTGATTTGG-3′ (chemistry not given here) [HDAC-2, antisense oligo, human HDAC2 3′-UTR]
Apoptosis A549 (A549; HDAC isotype-specific OSDN): − (“−”: < = 2x fold over non-specific background) | Apoptosis T24 (T24; HDAC isotype-specific OSDN): − (“−”: < = 2x fold over non-specific background) | Apoptosis MDAmb231 (MDAmb231; HDAC isotype-specific OSDN): − (“−”: < = 2x fold over non-specific background) | Apoptosis HMEC (HMEC; HDAC isotype-specific OSDN): − (“−”: < = 2x fold over non-specific background) | HDAC-2 RNA expression (antisense activity) (human HDAC-2 RNA): antisense activity to human HDAC-2 | expression of HDAC-2 protein (human HDAC-2 protein): specifically inhibits the expression of the respective HDAC isotype protein | effect on cancer cell growth and apoptosis (human cancer cells): minimal effect on cancer cell growth inhibition

Compound: 5′-TACAGTCCATGCAACCTCCA-3′ (sugars from the 5' end m4 d12 m4, all phosphorothioate, methylation of C and T or U not given here) [HDAC4 AS2, antisense oligo, human HDAC4 3′-UTR]
HDAC-4 expression at RNA level (human HDAC-4 mRNA): inbibit HDAC-4 expression at RNA level in a dose-dependent manner | expression of HDAC-4 protein (human HDAC-4 protein): inbibit HDAC-4 expression at protein level

Compound: CC(/C=C/C(=O)Nc1ccccc1N)=C\C(C)C(=O)c1ccc(N(C)C)cc1 (stereo not drawn) [MG 24 29]
4-Ac [1]: 1 µM

Compound: Nc1ccccc1NC(=O)CCCCCCC(=O)c1ccc(-c2ccccc2)cc1 [MG 36 50]
4-Ac [1]: 10 µM

Compound: Cc1ccc(S(=O)(=O)Nc2ccc(/C=C/C(=O)Nc3ccccc3N)cc2)cc1 [MG 37 63]
4-Ac [1]: 5 µM

Compound: Nc1ccccc1NC(=O)CCCCCCC(=O)c1ccc(-c2ccccc2)nc1 [MG 38 69]
4-Ac [1]: 5 µM

fold induction of transcription Bax (A549 cells): 0.8 fold | fold induction of transcription GADD45 (A549 cells): 0.6 fold | fold induction of transcription p21 (A549 cells): 2.8 fold
Compound: CC(/C=C/C(=O)NO)=C\[C@@H](C)C(=O)c1ccc(N(C)C)cc1 [TSA, (R)-Trichostatin A, reference compound]
Apoptosis A549 (A549; 100 ng/ml): ++ (“++”: 3-5X fold) | Apoptosis T24 (T24; 100 ng/ml): ++ (“++”: 3-5X fold) | Apoptosis MDAmb231 (MDAmb231; 100 ng/ml): ++ (“++”: 3-5X fold) | Apoptosis HMEC (HMEC; 100 ng/ml): + (“+”: 2-3X fold) | inhibition of mammalian HDAC (mammalian HDAC): potent inhibitor of mammalian HDAC | induction of differentiation [2]: potent inducer of differentiation in murine erythroleukemia cells
